Data taken from patent US20220184056A1, “USE OF KDM5A GENE AND ATRX GENE” (SHENZHEN CHIPSCREEN BIOSCIENCES, CO., LTD., priority 2019, published 2022).
Values joined by “and” are separate entries in the source; they are usually repeats but may differ in a detail not shown here. Identical values can stand only once.

Key:
[1] = tested on: relapsed and refractory small cell lung cancer; assay: Phase Ib clinical trial of Chiauranib monotherapy for relapsed and refractory small cell lung cancer, with ctDNA biomarker study (KDM5A, ATRX); type: in vivo, human
Experimental: According to the present invention, a phase Ib clinical trial of using Chiauranib capsules to treat relapsed and refractory small cell lung cancer was carried out, and a concomitant study of efficacy-related biomarkers for 548 tumor-related genes was carried out by detecting and analyzing plasma free tumor DNA (ctDNA). Blood samples were taken from all patients before enrollment, and gene sequences of tumor-related genes were detected, including gene mutations and copy number abnormalities. According to detection results, genes with mutation rates of more than 0.4% were all selected, and progression free survival (PFS) and objective response rates (ORR) of patients were taken as efficacy indicators to analyze the correlation between tumor-related gene abnormalities and the efficacy of Chiauranib.
Test drug: Chiauranib capsules, with specifications of 5 mg and 25 mg. They were manufactured by Shenzhen Chipscreen Biosciences Co., Ltd.
Dosing regimen: the Chiauranib capsules were administered QD at 50 mg/day (not adjusted according to the body weight or the body surface area). The capsules were taken on an empty stomach every morning with water, and the whole capsules were swallowed completely. Continuous administration for 28 days was one treatment cycle, and there was no interval during each treatment cycle.
Number of cases: 25 patients were enrolled.
The test subjects took 50 mg of Chiauranib capsules orally once daily, every 28 days was taken as one treatment cycle, and there was no withdrawal interval during the treatment cycles. All subjects received continuous treatment throughout the trial period until any one of the following occurred (whichever occurred first): progressed disease, intolerable toxicity, death, withdrawal of the informed consent, or loss to follow-up.
Efficacy evaluation: according to the RECIST 1.1 criteria, evaluations were respectively performed in the baseline period and at the end of the 4th week after treatment, and repeated every 8 weeks until a progressive disease occurred. Tumor imageological examinations included CT or MRI of neck, chest, whole abdomen, and pelvic cavity. Other site examinations should be performed as necessary according to clinical indications. The same technologies and methods should be used for baseline of lesions and subsequent evaluation and measurement.
10 mL of peripheral blood was taken before the subjects took Chiauranib for the first time and when a progressive disease occurred, gene sequences of plasma free tumor DNA (ctDNA) and leukocyte extracted DNA (control) were detected, a total of 548 tumor-related genes were included, and detection results included gene mutations and copy number abnormalities, as well as analysis of tumor mutation burden (TMB).
Plasma free tumor DNA (ctDNA) of the evaluated patients was detected and analyzed, and a concomitant study of efficacy-related biomarkers for the 548 tumor-related genes was carried out. According to detection results, genes with mutation rates of more than 0.4% were all selected, and progression free survival (PFS) and objective response (PR) of the patients were taken as efficacy indicators to analyze the correlation between tumor-related gene abnormalities and the efficacy of Chiauranib.

SCLC = details: topotecan combined optimal supportive treatment vs optimal supportive treatment alone; cited from earlier work

SMILES | efficacy of monotherapy in the treatment of small cell lung cancer ([1]; 50 mg QD oral) | benefit rate ([1]; 20 evaluated patients, 50 mg QD oral) | ORR ([1]; 20 evaluated patients, 50 mg QD oral, RECIST 1.1) | Non-response (SD + PD), number of patients ([1]; ATRX mutation (6 patients)) | Non-response (SD + PD), share of patients ([1]; ATRX mutation (6 patients)) | Objective response (PR), number of patients ([1]; ATRX mutation (6 patients)) | Objective response (PR), share of patients ([1]; ATRX mutation (6 patients)) | Non-response (SD + PD), number of patients ([1]; ATRX wild type (14 patients)) | Non-response (SD + PD), share of patients ([1]; ATRX wild type (14 patients)) | Objective response (PR), number of patients ([1]; ATRX wild type (14 patients)) | Objective response (PR), share of patients ([1]; ATRX wild type (14 patients)) | PFS Hazard ratio (HR) ([1]; KDM5A wild type vs mutation, P value 0.0087) | patients with best efficacy evaluation being partial response (PR) ([1]; among 20 evaluated patients) | PFS, Median (95% CI) ([1]; patients with KDM5A gene mutation (n = 8)) | PFS, Median (95% CI) ([1]; patients with wild-type KDM5A gene (n = 12)) | Overall survival, quality of life, improvement of symptoms (SCLC)
COc1ccc2c(Oc3ccc4c(C(=O)Nc5ccccc5N)cccc4c3)ccnc2c1 [Chiauranib, N-(2-aminophenyl)-6-(7-methoxyquinolin-4-oxy)-1-naphthamide] | effective | 60% | 20% | 2 patients | 33.3% | 4 patients | 66.7% | 14 patients | 100.0% | 0 patients | 0% | 16.5 (2.03, 133.37) | 4 patients | 145 days and 145.0 (23.0, 145.0) days | 27.5 days and 27.5 (16.0, 61.0) days | 
CC[C@@]1(O)C(=O)OCc2c1cc1n(c2=O)Cc2cc3c(CN(C)C)c(O)ccc3nc2-1 [topotecan] |  |  |  |  |  |  |  |  |  |  |  |  |  |  |  | significantly better
